Test results from patent US12281102B2, “Inhibitors of APOL1 and methods of using same” (Vertex Pharmaceuticals Incorporated, priority 2020, dated 2025).

What follows are compounds tested against T1, G1 APOL1 (Homo sapiens, UniProt O14791, I384M/S342G) (assay: Acute APOL1 Thallium Assay with inducible stable clones of HEK 293 cells). Settings: HEK 293 T-Rex inducible stable clone expressing G1 APOL1; read-out: Thallium Assay (IC50).
T1 construct: expressed in transfected cells
T1 sequence (O14791 28-398 S342G/I384M): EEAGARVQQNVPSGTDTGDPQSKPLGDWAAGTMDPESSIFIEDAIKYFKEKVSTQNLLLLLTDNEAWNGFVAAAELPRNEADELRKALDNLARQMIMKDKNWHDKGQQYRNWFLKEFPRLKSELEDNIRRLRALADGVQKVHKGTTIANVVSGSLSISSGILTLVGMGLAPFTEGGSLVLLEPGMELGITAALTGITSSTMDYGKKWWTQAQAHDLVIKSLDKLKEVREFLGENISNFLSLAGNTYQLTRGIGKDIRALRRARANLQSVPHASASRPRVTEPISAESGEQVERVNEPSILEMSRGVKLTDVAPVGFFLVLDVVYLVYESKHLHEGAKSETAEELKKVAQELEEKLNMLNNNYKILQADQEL
Type: cell-based
Procedure, shortened: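 APOL1 pore function was measured as thallium influx, detected by a Tl+-sensitive fluorescent dye loaded as AM ester, on a FLIPR Tetra after Tl+ addition. Cells were HEK T-Rex G1 APOL1 clone DC3.25, 26,000 per well, induced with tetracycline at plating in Opti-MEM assay medium.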

Row | Structure (SMILES) | IC50
1 | NC(=O)C(=O)N1CC(Cc2c(-c3ccc(F)cc3)[nH]c3c(F)cc(F)cc23)C1 [Compound 455, 2-[3-[[5,7-difluoro-2-(4-fluorophenyl)-1H-indol-3-yl]methyl]azetidin-1-yl]-2-oxo-acetamide] | 250 to 1000 nM
2 | O=C1NC(=O)C(CCS(=O)(=O)N[C@H]2C[C@H](c3c(-c4ccc(F)cc4)[nH]c4c(F)cc(F)cc43)C2)N1 (some centres unmarked) [Compound 151] | 250 to 1000 nM
3 | NCC(=O)NC[C@H]1C[C@@H](c2c(-c3ccc(F)cc3)[nH]c3c(F)cc(F)cc32)C1 [Compound 190] | < 250 nM
4 | O=C(NC[C@H]1C[C@@H](c2c(-c3ccc(F)cc3)[nH]c3c(F)cc(F)cc32)C1)C(O)C1CC1 (some centres unmarked) [Compound 247] | > 1000 nM
5 | CN1CCC(CC(=O)N[C@H]2C[C@@H](c3c(-c4ccc(F)cc4)[nH]c4c(F)cc(F)cc43)C2)CC1 [Compound 52] | > 1000 nM
6 | O=S(=O)(NC[C@H]1C[C@H](c2c(-c3ccc(F)cc3)[nH]c3c(F)cc(F)cc32)C1)c1c[nH]cn1 [Compound 415] | 250 to 1000 nM
7 | C[C@@]1(C(=O)NC[C@H]2C[C@H](c3c(-c4ccc(F)cc4)[nH]c4c(F)cc(F)cc43)C2)CCCN1 [Compound 289] | > 1000 nM
8 | O=C(N[C@H]1C[C@@H](c2c(-c3ccc(F)cc3)[nH]c3c(F)cc(F)cc32)C1)c1cn[nH]c1 [Compound 73] | 250 to 1000 nM
9 | Cc1nccn1CC(=O)N[C@H]1C[C@@H](c2c(-c3ccc(F)cc3)[nH]c3c(F)cc(F)cc32)C1 [Compound 63] | > 1000 nM
10 | O=C(NC[C@H]1C[C@H](c2c(-c3ccc(F)cc3)[nH]c3c(F)cc(F)cc32)C1)[C@@H]1CCN1 [Compound 198] | < 250 nM
11 | O=S(=O)(NC[C@@H](O)CO)NC[C@H]1C[C@H](c2c(-c3ccc(F)cc3)[nH]c3c(F)cc(F)cc32)C1 [Compound 352] | > 1000 nM
12 | O=S(=O)(NC[C@H]1C[C@H](c2c(-c3ccc(F)cc3)[nH]c3c(F)cc(F)cc32)C1)N[C@H]1C[C@H](O)C1 [Compound 344] | > 1000 nM
13 | CC(C)(C)OC(=O)N1CC[C@H](O)[C@H]1C(=O)NC[C@H]1C[C@H](c2c(-c3ccc(F)cc3)[nH]c3c(F)cc(F)cc32)C1 [Compound 255] | > 1000 nM
14 | Fc1ccc(-c2[nH]c3c(F)cc(F)cc3c2C2CC(CNC3COC3)C2)cc1 (centres unmarked) [Compound 380] | 250 to 1000 nM
15 | CC[C@@H](CO)NCC1CC(c2c(-c3ccc(F)cc3)[nH]c3c(F)cc(F)cc23)C1 (some centres unmarked) [Compound 395] | > 1000 nM
16 | O=C1CC(CC(=O)NC2CC(Cc3c(-c4ccc(F)cc4)[nH]c4c(F)cc(F)cc34)C2)C(=O)N1 (centres unmarked) [Compound 164] | > 1000 nM
17 | CC(=O)NC1CCC(c2c(-c3ccc(F)cc3)[nH]c3c(F)cc(F)cc23)CC1 (centres unmarked) [Compound 435, N-(4-(5,7-difluoro-2-(4-fluorophenyl)-1H-indol-3-yl)cyclohexyl)acetamide] | > 1000 nM
18 | CC1(C(=O)N[C@H]2C[C@H](c3c(-c4ccc(F)cc4)[nH]c4c(F)cc(F)cc43)C2)CCC(=O)NC1 (mixture of isomers) [Compound 97] | > 1000 nM
19 | O=C(NC[C@H]1C[C@H](c2c(-c3ccc(F)cc3)[nH]c3c(F)cc(F)cc32)C1)[C@@H]1C[C@H](F)CN1 [Compound 246] | > 1000 nM

Row | Structure (SMILES) | IC50
20 | O=C(CC1CCCOC1)NC[C@H]1C[C@@H](c2c(-c3ccc(F)cc3)[nH]c3c(F)cc(F)cc32)C1 (some centres unmarked) [Compound 323] | > 1000 nM
21 | OCCCNCC1CC(c2c(-c3ccc(F)cc3)[nH]c3c(F)cc(F)cc23)C1 (centres unmarked) [Compound 393] | > 1000 nM
22 | C[C@H](O)C(=O)NC1CC(Cc2c(-c3ccc(F)cc3)[nH]c3c(F)cc(F)cc23)C1 (some centres unmarked) [Compound 161] | 250 to 1000 nM
23 | O=C1CC(NC[C@H]2C[C@H](c3c(-c4ccc(F)cc4)[nH]c4c(F)cc(F)cc43)C2)C(=O)N1 (some centres unmarked) [Compound 422, 3-((((1r,3r)-3-(5,7-difluoro-2-(4-fluorophenyl)-1H-indol-3-yl)cyclobutyl)methyl)amino)pyrrolidine-2,5-dione] | 250 to 1000 nM
24 | CN(CC(=O)N[C@H]1C[C@H](c2c(-c3ccc(F)cc3)[nH]c3c(F)cc(F)cc32)C1)S(C)(=O)=O [Compound 103] | > 1000 nM
25 | NCC(O)CNCC1CC(c2c(-c3ccc(F)cc3)[nH]c3c(F)cc(F)cc23)C1 (centres unmarked) [Compound 403] | > 1000 nM
26 | Cn1ccc(CC(=O)N[C@H]2C[C@@H](c3c(-c4ccc(F)cc4)[nH]c4c(F)cc(F)cc43)C2)n1 [Compound 41] | > 1000 nM
27 | O=C(NC[C@H]1C[C@@H](c2c(-c3ccc(F)cc3)[nH]c3c(F)cc(F)cc32)C1)c1cn[nH]c1 [Compound 317] | > 1000 nM
28 | O=S(=O)(NCCc1c[nH]cn1)NC[C@H]1C[C@H](c2c(-c3ccc(F)cc3)[nH]c3c(F)cc(F)cc32)C1 [Compound 359] | > 1000 nM
29 | O=C(N[C@H]1C[C@H](c2c(-c3ccc(F)cc3)[nH]c3c(F)cc(F)cc32)C1)C1(O)CC1 [Compound 135] | < 250 nM
30 | O=C(CCN1CCCC1)N[C@H]1C[C@@H](c2c(-c3ccc(F)cc3)[nH]c3c(F)cc(F)cc32)C1 [Compound 44] | > 1000 nM
31 | NC(=O)CC(=O)NC[C@H]1C[C@@H](c2c(-c3ccc(F)cc3)[nH]c3c(F)cc(F)cc32)C1 [Compound 243] | > 1000 nM
32 | OCC(CO)NCC1CC(c2c(-c3ccc(F)cc3)[nH]c3c(F)cc(F)cc23)C1 (centres unmarked) [Compound 376] | 250 to 1000 nM
33 | O=C(NC[C@H]1C[C@H](c2c(-c3ccc(F)cc3)[nH]c3c(F)cc(F)cc32)C1)[C@H]1COCCN1 [Compound 257] | > 1000 nM
34 | O=C(CC1CS(=O)(=O)C1)NC[C@H]1C[C@H](c2c(-c3ccc(F)cc3)[nH]c3c(F)cc(F)cc32)C1 [Compound 261] | > 1000 nM
35 | NC(=O)CC(=O)NC1CC(Cc2c(-c3ccc(F)cc3)[nH]c3c(F)cc(F)cc23)C1 (centres unmarked) [Compound 165] | > 1000 nM
36 | Cn1ccc(NCC2CC(c3c(-c4ccc(F)cc4)[nH]c4c(F)cc(F)cc34)C2)n1 (centres unmarked) [Compound 399] | > 1000 nM
37 | O=S(=O)(N[C@H]1C[C@@H](c2c(-c3ccc(F)cc3)[nH]c3c(F)cc(F)cc32)C1)C1COC1 [Compound 83] | > 1000 nM
38 | CC(=O)N[C@@H](C)C(=O)NC[C@H]1C[C@H](c2c(-c3ccc(F)cc3)[nH]c3c(F)cc(F)cc32)C1 [Compound 208] | 250 to 1000 nM

Row | Structure (SMILES) | IC50
39 | O=C(N[C@H]1C[C@H](c2c(-c3ccc(F)cc3)[nH]c3c(F)cc(F)cc32)C1)C1(CO)CC1 [Compound 142] | < 250 nM
40 | COCCC(=O)N[C@H]1C[C@@H](c2c(-c3ccc(F)cc3)[nH]c3c(F)cc(F)cc32)C1 [Compound 62] | > 1000 nM
41 | CN(C)C(=O)CCC(=O)N[C@H]1C[C@@H](c2c(-c3ccc(F)cc3)[nH]c3c(F)cc(F)cc32)C1 [Compound 60] | > 1000 nM
42 | CN(C)C(=O)CCC(=O)NC[C@H]1C[C@@H](c2c(-c3ccc(F)cc3)[nH]c3c(F)cc(F)cc32)C1 [Compound 454, N^1-(((1s,3s)-3-(5,7-difluoro-2-(4-fluorophenyl)-1H-indol-3-yl)cyclobutyl)methyl)-N^4,N^4-dimethylsuccinamide] | > 1000 nM
43 | O=C1CCC(C(=O)NC[C@H]2C[C@@H](c3c(-c4ccc(F)cc4)[nH]c4c(F)cc(F)cc43)C2)CN1 (some centres unmarked) [Compound 328] | > 1000 nM
44 | O=C(Cn1cnnc1)NC[C@H]1C[C@@H](c2c(-c3ccc(F)cc3)[nH]c3c(F)cc(F)cc32)C1 [Compound 307] | > 1000 nM
45 | O=C1c2ccccc2C(=O)N1CCS(=O)(=O)NC[C@H]1C[C@H](c2c(-c3ccc(F)cc3)[nH]c3c(F)cc(F)cc32)C1 [Compound 420] | > 1000 nM
46 | CC1(C)CCC(C(=O)N[C@H]2C[C@H](c3c(-c4ccc(F)cc4)[nH]c4c(F)cc(F)cc43)C2)N1 (some centres unmarked) [Compound 127] | > 1000 nM
47 | CC(=O)Nc1ccn(C2CC(c3c(-c4ccc(F)cc4)[nH]c4c(F)cc(F)cc34)C2)n1 (centres unmarked) [Compound 19, N-[1-[3-[5,7-difluoro-2-(4-fluorophenyl)-1H-indol-3-yl]cyclobutyl]pyrazol-3-yl]acetamide] | > 1000 nM
48 | O=C(NC[C@H]1C[C@H](c2c(-c3ccc(F)cc3)[nH]c3c(F)cc(F)cc32)C1)c1ccc(=O)[nH]c1 [Compound 304] | > 1000 nM
49 | O=C(CC1COC1)N[C@H]1C[C@@H](c2c(-c3ccc(F)cc3)[nH]c3c(F)cc(F)cc32)C1 [Compound 50] | > 1000 nM
50 | O=C(CC1CS(=O)(=O)C1)NC[C@H]1C[C@@H](c2c(-c3ccc(F)cc3)[nH]c3c(F)cc(F)cc32)C1 [Compound 231] | > 1000 nM
51 | O=C1CC(CNS(=O)(=O)NC[C@H]2C[C@H](c3c(-c4ccc(F)cc4)[nH]c4c(F)cc(F)cc43)C2)CN1 (some centres unmarked) [Compound 368] | 250 to 1000 nM
52 | O=S(=O)(N[C@H]1C[C@H](c2c(-c3ccc(F)cc3)[nH]c3c(F)cc(F)cc32)C1)c1c[nH]cn1 [Compound 150] | 250 to 1000 nM
53 | NC(=O)C1(NS(=O)(=O)NC[C@H]2C[C@H](c3c(-c4ccc(F)cc4)[nH]c4c(F)cc(F)cc43)C2)CC1 [Compound 349] | > 1000 nM
54 | C[C@H](CO)NCC1CC(c2c(-c3ccc(F)cc3)[nH]c3c(F)cc(F)cc23)C1 (some centres unmarked) [Compound 394] | > 1000 nM
55 | CC1(CO)CCN1S(=O)(=O)NC[C@H]1C[C@H](c2c(-c3ccc(F)cc3)[nH]c3c(F)cc(F)cc32)C1 (mixture of isomers) [Compound 364] | > 1000 nM
56 | O=C1C=C(NC[C@H]2C[C@H](c3c(-c4ccc(F)cc4)[nH]c4c(F)cc(F)cc43)C2)C(=O)N1 [Compound 421, 3-((((1r,3r)-3-(5,7-difluoro-2-(4-fluorophenyl)-1H-indol-3-yl)cyclobutyl)methyl)amino)-1H-pyrrole-2,5-dione] | > 1000 nM
